Where two headings read alike, the source gives them in different places.
Tested on: Plasmodium falciparum Dd2 asexual blood stage parasites
Test: microbe, parasite or virus in culture
Parameters: species or system Plasmodium falciparum Dd2 in human erythrocytes; single determination (one 11-point concentration-response curve)
Conditions: Plasmodium falciparum, DD2, Erythrocyte, 72 h

Row | Structure (SMILES) | AC50 (read-out: AC50) [µM] | AC50 [µM]
1 | CCC(=O)C1=C(c2ccc(OC)c(OC)c2)N(C(=O)CC)n2c(CC)nnc2S1 [NCGC00137256-01] | 4.73 | –
2 | COc1ccc(C2=C(C(C)=O)Sc3nnc(-c4ccc(Cl)cc4)n3N2C(C)=O)cc1OC [NCGC00137262-01] | 3.76 | –
3 | CCC(=O)C1=C(c2cccc([N+](=O)[O-])c2)N(C(=O)CC)n2c(nnc2C2CCCCC2)S1 [NCGC00137266-01] | 1.88 | –
4 | CCC(=O)C1=C(c2cccc([N+](=O)[O-])c2)N(C(=O)CC)n2c(nnc2-c2ccccc2)S1 [NCGC00137270-01] | 5.31 | –
5 | COc1cccc(C2=C(C(C)=O)Sc3nnc(C4CCCCC4)n3N2C(C)=O)c1 [NCGC00137294-01] | 4.73 | –
6 | O=[N+]([O-])c1ccc([S+](=O)([O-])N2CCn3cccc3C2c2ccc(Br)cc2)cc1 (stereo not drawn) [NCGC00137374-01] | 5.96 | –
7 | CCOC(=O)c1cnn(-c2ccc(C(=O)Nc3ccc(C(C)=O)cc3)cc2)c1N [NCGC00137680-01] | 4.73 | –
8 | COC(=O)c1cnn(-c2ccc(C(=O)Nc3ccc(OC(F)(F)F)cc3)cc2)c1N [NCGC00137710-01] | 4.73 | –
9 | Cc1cccc(C(=O)N2CCc3cc(CNC(=O)c4ccc(Br)o4)ccc32)c1 [NCGC00137781-01] | 9.44 | –
10 | CCOc1cccc(CC(=O)Nc2ccc3nc(N4CCCCC4)cc(C)c3c2)c1OCC [NCGC00137846-01] | 6.68 | –
11 | CCOC(=O)c1c(C)[nH]c(C)c1[S+](=O)([O-])N1CCCC(C(=O)N2CCN(c3cccc(C)c3C)CC2)C1 (stereo not drawn) [NCGC00138103-01] | 1.33 | –
12 | CCOC(=O)c1c([S+](=O)([O-])N2CCCC(C(=O)N3CCN(c4cc(C)ccc4C)CC3)C2)c(C)n(C)c1C (stereo not drawn) [NCGC00138145-01] | 1.5 | –
13 | O=C(NCCC1=CCCCC1)c1ccc2c(=O)n3nc(Nc4ccccc4)sc3nc2c1 [NCGC00138829-01] | 4.73 | –
14 | Cc1ccccc1CN1C(=O)C(C)N=C(c2ccccc2)c2ccccc21 (stereo not drawn) [NCGC00140509-01] | – | 15
15 | Cc1ccccc1CN1C(=O)CN=C(c2ccccc2)c2cc(Cl)ccc21 [NCGC00140581-01] | 16.8 | –
16 | CCc1ccc(NC(=O)CSc2nc3[nH]nc(C)c3c(=N)n2-c2ccc(C)cc2)cc1 [NCGC00140694-01] | 6.68 | –
17 | COc1ccccc1N1CCN(C(=O)C2CCCN(S(=O)(=O)c3ccc4c(c3)oc(=O)n4C)C2)CC1 (stereo not drawn) [NCGC00140732-01] | 5.96 | –
18 | CCOC(=O)c1cccc(NC(=O)CCn2c(-c3ccc(F)cc3)cc(C(=O)OCC)c2C)c1 [NCGC00140860-01] | 0.075 | –
19 | CCOC(=O)c1cc(-c2ccc(OC)cc2)n(CCC(=O)Nc2cccc(C(C)=O)c2)c1C [NCGC00140940-01] | 0.211 | –
20 | CCOC(=O)c1sc(NC(=O)c2nc3ncccn3n2)c(C(=O)OC(C)C)c1C [NCGC00141358-01] | 2.66 | –
21 | CCOC(=O)c1cc(C)n(CC2CCC(C(=O)Nc3cccc(Cl)c3)CC2)c1C (stereo not drawn) [NCGC00141645-01] | 8.41 | –
22 | CCOC(=O)c1c(N)sc2c1CCN(Cc1ccccc1)C2 [NCGC00159451-02] | 5.31 | –
23 | COC(=O)CC1Oc2ccc(Cl)cc2-n2cc(-c3ccc(F)cc3)nc21 (stereo not drawn) [NCGC00164810-01] | 4.22 | –
24 | Cc1cc(O)c(-c2ccnc3cc(-c4ccccc4)nn23)cc1Cl [NCGC00164840-01] | 1.88 | –
25 | O=C(Nc1cc(Cl)ccc1O)c1cc2nc(-c3ccc4c(c3)OCO4)cc(C(F)(F)F)n2n1 [NCGC00164969-01] | 2.66 | –

Row | Structure (SMILES) | AC50 (read-out: AC50) [µM] | AC50 [µM]
26 | COc1ccc(C2Nc3ccccc3C(=O)N2Cc2ccccc2)cc1COc1ccc(Cl)cc1Cl (stereo not drawn) [NCGC00165212-01] | 8.41 | –
27 | CCC(=O)O[C@]1(C(=O)CCl)[C@@H](C)C[C@H]2[C@@H]3C[C@H](F)C4=CC(=O)C=C[C@]4(C)[C@@]3(F)[C@@H](O)C[C@@]21C [NCGC00167451-01] | 10.6 | –
28 | CCOC(=O)C1(c2ccccc2)CCN(CCC(C#N)(c2ccccc2)c2ccccc2)CC1 [NCGC00167963-01] | 5.31 | –
29 | C=C[C@]1(C)C[C@@H](OC(=O)CSC(C)(C)CNC(=O)[C@H](N)C(C)C)[C@]2(C)[C@H](C)CC[C@]3(CCC(=O)[C@H]32)[C@@H](C)[C@@H]1O [NCGC00167968-01] | 8.41 | –
30 | COc1ccc2c(c1)OC(C)(C)[C@@H](c1ccccc1)[C@@H]2c1ccc(OCCN2CCCC2)cc1 [NCGC00181100-01] | 6.68 | –
31 | O=C(C[C@@H]1NCCC[C@H]1O)Cn1cnc2cc(Br)c(Cl)cc2c1=O [NCGC00181132-01] | 2.37 | –
32 | Oc1cc(Nc2ccccc2)cc2cccnc12 [NCGC00183789-01] | 6.68 | –
33 | Oc1cc(NCc2ccc(F)cc2)cc2cccnc12 [NCGC00183798-01] | 4.73 | –
34 | CN(C)CCNCc1ccc(-c2ccccc2)o1 [NCGC00326685-02] | 10.6 | –
35 | Cc1noc(-c2cccs2)c1C(=O)NC(C)c1cccc2ccccc12 (stereo not drawn) [NCGC00358764-02] | 0.668 | –
36 | Cn1cccc1CN1CCCC2(C1)C(NC1CCCCC1)=NC(=O)N2c1cccnc1 (stereo not drawn) [NCGC00374042-01] | 5.31 | –
37 | O=C1N=C(NC2CCCCC2)C2(CCN(Cc3ccccc3)C2)N1c1cc(F)cc(F)c1 (stereo not drawn) [NCGC00374188-01] | 4.22 | –
38 | O=C1N=C(NC2CCCCC2)C2(CCN(Cc3ccc(F)cc3)C2)N1c1cc(F)cc(F)c1 (stereo not drawn) [NCGC00374193-01] | 4.22 | –
39 | COc1ccc(CN2CCC3(C2)C(NC2CCCCC2)=NC(=O)N3c2cccnc2)cc1 (stereo not drawn) [NCGC00374261-01] | 2.11 | –
40 | O=C1N=C(NC2CCCC2)C2(CCN(CC3CC3)C2)N1c1cc(F)cc(F)c1 (stereo not drawn) [NCGC00374289-01] | 1.5 | –
41 | O=C1N=C(NC2CCCC2)C2(CCN(Cc3ccccc3)C2)N1c1cc(F)cc(F)c1 (stereo not drawn) [NCGC00374299-01] | 7.5 | –
42 | O=C1N=C(NC2CCCC2)C2(CCN(Cc3ccc(F)cc3)C2)N1c1cc(F)cc(F)c1 (stereo not drawn) [NCGC00374305-01] | 10.6 | –
43 | COc1ccccc1-c1nnc2n1C(C(=O)NCCc1ccc(Cl)cc1)CC2 (stereo not drawn) [NCGC00375512-01] | 3.35 | –
44 | FC(F)(F)CN1C2CCC1CN(c1nnc(Cl)c3ccccc13)C2 [NCGC00375660-01] | 2.11 | –
45 | COc1ccc(CC(=O)N2Cc3ccccc3CC3(CCCN3C)C2)cc1 (stereo not drawn) [NCGC00377108-01] | 9.44 | –
46 | O=C1NCc2ccccc2CC12CCCCN2CC1CC=CCC1 (stereo not drawn) [NCGC00377392-01] | 2.34 | –
47 | Cn1cccc1CN1CCCC2(Cc3ccccc3CNC2=O)C1 (stereo not drawn) [NCGC00377565-01] | 13.2 | –
48 | O=C1NCc2ccccc2CC12CCCN(CC1=CCCCC1)C2 (stereo not drawn) [NCGC00377566-01] | 3.31 | –
49 | NC(Cc1ccccc1)C(=O)N1CCC2(CC1)CN(C(=O)c1ccc(Cl)cc1)CCO2 (stereo not drawn) [NCGC00378158-01] | 0.841 | –
50 | C#CCNC(=O)C[C@@H]1c2nc(NC(=O)OCC=C)sc2C[C@@H]2[C@](C)(CO)[C@H](O)CC[C@]21C [NCGC00391491-01] | 15 | –

Row | Structure (SMILES) | AC50 (read-out: AC50) [µM] | AC50 [µM]
51 | COC[C@H]1CCCN1[C@@H]1[C@H](O)[C@H](CO)O[C@@H]1CN(Cc1cccc(Cl)c1)Cc1cccc(Cl)c1 [NCGC00391669-01] | 10.6 | –
52 | O=C(Nc1ccccc1)[C@H]1O[C@H](CCN2CCN(c3ccc(F)cc3)CC2)CC[C@@H]1O [NCGC00391966-01] | 10.9 | –
53 | O[C@@H]1C[C@@](CNCc2cccc(Cl)c2)(COc2ccccc2)C[C@@H]1O [NCGC00392187-01] | 3.85 | –
54 | COc1ccc(CN2C[C@H]3CN(Cc4c[nH]c5ccccc45)CCN3C2=O)cc1 [NCGC00392270-01] | 3.85 | –
55 | CC[C@H]1C[N@@]2CC[C@H]1C[C@@H]2CNCc1ccc(SC)cc1 [NCGC00392466-01] | 4.33 | –
56 | CC(C)(C)c1ccc(C(=O)Nc2ccc(C(O)[C@H]3COCC(=O)N3Cc3ccccn3)cc2)cc1 (stereo partly drawn) [NCGC00392498-01] | 5.31 | –
57 | COc1ccccc1N1CCN([C@H]2[C@@H]3OC[C@@H](O3)[C@@H](NCc3ccc(-c4ccccc4)cc3)[C@@H]2O)CC1 [NCGC00392675-01] | 15 | –
58 | CCCc1nnc(C[C@@H]2C[C@@H](C(C)C)[C@H](CN3CCC[C@H]3CO)C=C2C)o1 [NCGC00392769-01] | 17.2 | –
59 | CN1CCN(c2ccc(-c3noc([C@@H]4CCCN4C4CCCCC4)n3)cn2)CC1 [NCGC00392835-01] | 19.3 | –
60 | COc1ccc(CN2C(=O)COC[C@@H]2[C@H](O)c2ccc(NC(=O)c3ccc(C(C)(C)C)cc3)cc2)cc1 [NCGC00392864-01] | 2.11 | –
61 | COC(=O)c1ccc2nc(CO[C@H]3CN(Cc4cn(C)c5ccccc45)C[C@H]3F)[nH]c2c1 [NCGC00392963-01] | 13.3 | –
62 | CC1=C[C@@H](CN(C)C)[C@H](C(C)C)C[C@H]1Cc1nc2cccc(C)c2[nH]1 [NCGC00393074-01] | 15.3 | –
63 | COc1ccccc1CNC[C@H]1O[C@H](Cc2cc(CN(C)Cc3ccccc3)on2)CC[C@@H]1O [NCGC00393289-01] | 2.99 | –
64 | O[C@H]1CC[C@@H](Cc2cc(COc3ccccc3)on2)O[C@@H]1CNCc1cccc(Cl)c1 [NCGC00393311-01] | 2.11 | –
65 | O[C@@H]1C[C@@](CNCC2CCCC2)(COc2ccc(C(F)(F)F)cn2)C[C@@H]1O [NCGC00393440-01] | 5.31 | –
66 | CN(Cc1ccccc1)Cc1cc(C[C@@H]2CC[C@H](O)[C@@H](CNCc3ccccc3)O2)no1 [NCGC00393466-01] | 4.73 | –
67 | Clc1ccc(CN2CCOC[C@H](Oc3ccccc3)C2)cc1 [NCGC00393521-01] | 17.2 | –
68 | Cc1ccc(CN2CCOC[C@H]2c2nc(C(C)(C)C)c[nH]2)cc1 [NCGC00393602-01] | 13.7 | –
69 | CC1=C[C@@H](CNC(C)C)[C@H](C(C)C)C[C@H]1Cc1nnc(-c2ccc(C)cc2)o1 [NCGC00394176-01] | 13.7 | –
70 | COc1ccc(-c2nnc(C[C@@H]3C[C@@H](C(C)C)[C@H](CNCc4cccnc4)C=C3C)o2)cc1 [NCGC00394182-01] | 6.68 | –
71 | Oc1ccccc1CN1CCOC[C@H]1c1nc(-c2ccc(C(F)(F)F)cc2)c[nH]1 [NCGC00394286-01] | 4.85 | –
72 | COc1ccc(-c2c[nH]c([C@@H]3COCCN3Cc3ccccc3O)n2)cc1 [NCGC00394307-01] | 17.2 | –
73 | CC1CCN(C(=O)C[C@@H]2c3nc(NC(=O)c4cccc(F)c4)sc3C[C@@H]3[C@](C)(CO)[C@H](O)CC[C@]32C)CC1 [NCGC00394310-01] | 10.6 | –
74 | C#CCN(C)C(=O)C[C@@H]1c2nc(NC(=O)c3ccc(OC)cc3)sc2C[C@@H]2[C@](C)(CO)[C@H](O)CC[C@]21C [NCGC00394313-01] | 2.66 | –
75 | CCN(CC)C(=O)C[C@@H]1c2nc(NC(=O)c3cccc(F)c3)sc2C[C@@H]2[C@](C)(CO)[C@H](O)CC[C@]21C [NCGC00394316-01] | 9.44 | –

— publication PMC7822874, “Chemoprotective antimalarials identified through quantitative high-throughput screening of Plasmodium blood and liver stage parasites” (Scientific Reports, 2021)
